Test results published in patent publication US10464957B2, “Oxidized lipids and methods of use thereof” (Vascular Biogenics Ltd., priority 2014, dated 2019).

How the values were obtained:
[1] = system: RANTES-induced signaling in human monocytes (primary CD14+); assay: RANTES-induced signaling, western blot; format: cell-based; conditions: RANTES 100 ng/ml for 15 minutes
Experimental: Cells (10^6/ml) were pretreated for 20 min with VB-201 (1-hexadecyl-2-(4′-carboxy)butyl-glycero-3-phosphocholine or 1-hexadecyl-2-(4′-carboxybutyl)-glycerol-3-phosphocholine) or VB-701 at the doses indicated in FIG. 2, or with solvent (Sol), followed by 15 min activation with 100 ng/ml lipopolysaccharide (LPS) or were untreated (Unt). Cells were washed and resuspended in lysis buffer containing 1:100 dithiothreitol (DTT), phosphatase and protease inhibitors (Thermo Scientific). Samples were loaded onto a precast Criterion TGX gel (Bio-Rad, Hemel Hempstead, UK) and transferred onto nitrocellulose membrane. Blots were blocked with 5% milk or BSA in Tris buffered saline and Tween 20 (TBST) for 1 h, followed by incubation with primary and secondary antibodies. Membranes were developed using an ECL kit (Thermo Scientific). The following antibodies were used for immunoblotting:
Human monocytes were obtained, treated and analyzed by western blot as described in Example 9 and FIG. 7, except that cells were induced with RANTES (100 ng/ml; Cat. No. 300-06, PeproTech, Israel) for 15 minutes. […] Accordingly, VB-702 and VB-201 inhibit RANTES-induced signaling in human monocytes (primary CD14+).

[2] = system: Pam3CSK4 (TLR2)-stimulated human monocytes (primary CD14+); assay: IL-12/23p40 ELISA, Pam3CSK4 (TLR2)-stimulated monocytes; format: cell-based; conditions: 1 hour pretreatment, 24 hour 300 ng/ml Pam3CSK4, ELISA of supernatant
Experimental: Human monocytes were obtained as described in Example 9 and FIG. 9A-9B. Human monocytes were seeded (10^6/ml) and pretreated for 1 hour with VB-201, VB-701 or VB-702, followed by 24 hour activation with 100 ng/ml LPS from Escherichia coli strain 055:B5 (Sigma, Israel) (FIG. 9A) or 300 ng/ml Pam3CSK4 (InvivoGen, San Diego, Calif., USA) (FIG. 9B) to induce cytokine production. IL-12/23p40 concentration in the supernatant was then measured by ELISA (R&D systems, Cat. No. DY1240). Cells activated with solvent (0.5% ethanol in PBS) were used as a control.

nephrectomized rats = assay: 5/6 nephrectomy chronic renal disease rat model (focal and segmental glomerulosclerosis); format: in vivo, Sprague Dawley (SD) Rats
Experimental: Male Sprague Dawley (SD) Rats (Harlan Laboratories, Israel) with an initial weight of 200 g were housed 2-3 per cage in IVC cages in dedicated HVAC (heat, ventilation, air conditioning animal facility at a temperature of 22±2° C. and RH (relative humidity) of 55±15%). Temperature and humidity were monitored continuously. The facility had no exposure to outside light and was maintained on automatic alternating cycles of 12 hours of light and 12 hours of dark. Animals were provided with a commercial rodent diet (Harlan Teklad TRM Rat/Mouse Diet) ad libitum and allowed free access to autoclaved water, supplied to each cage via polysulphone bottles with stainless steel sipper tubes. All animal work was approved by the Animal Care and Use Committee of Israel (IL-13-03-027).
Rats were divided into three groups: (1) Healthy rats (n=3) in group A, (2) Sham group—subjected to chirurgical process but without kidney mass reduction (n=3) in group B, and (3) the rest were induced with chronic renal failure (n=32). Chronic renal failure was induced by a two stage (5/6) nephrectomy (Nx), with subtraction firstly of about ⅔ of the left kidney by left flank incision and, one week later, complete removal of the right kidney. General anesthesia consisted of intraperitoneal injection of ketamine 100 mg/kg and xylazine 20 mg/kg (0.85 ml ketamine+0.15 ml xylazine for each ml preparation; 1 μl/g BW was injected I.P).
One week following the second surgery, rats were randomly assigned to the following experimental groups:
Nephrectomized, orally administered with VB-703 4 mg/kg (n=8); and
Nephrectomized, orally administered with telmisartan 10 mg/kg as positive control (n=8).
Body weight (BW) was monitored throughout the study and rats were treated by oral gavage according to their body weight for 7 weeks. Rats were sacrificed by CO2 inhalation 8 weeks from removal of the right kidney (2nd surgery).
Proteinuria and albuminuria was determined in urine specimens, collected during a 24-hour period, from animals housed in cages at 4 weeks (3 w of treatment) and 8 weeks (7 w of treatment) after the subtotal nephrectomy (2nd surgery). Urine samples were analyzed for: glucose, urea, sodium, potassium, creatinine, total protein, and albumin.
Upon sacrifice, at 8 weeks, kidneys were collected, weighed and fixed in 4% formaldehyde.
For light microscopy, paraffin-embedded tissue slides of 4 μm were stained with Periodic Acid-Schiff (PAS) reagent, Masson's Trichrome and Hematoxylin & Eosin.
Glomerular sclerosis index. Glomerulosclerosis was assessed by PAS-stained sections using a semiquantitative scoring system. The extent of glomerulosclerosis was evaluated by examining mostly 100 randomly selected glomeruli at a magnification of ×400 and applying a score system according to the percentage of sclerosed glomerular area. The score was graded from 0 to 4: (0=0% area; 1=1-25%; 2=26-50%, 3=51-75%, 4=76% and above). The mean of all scored glomeruli was presented. Moreover, the extent of global and segmental glomerulosclerosis was evaluated in the same glomeruli, where <80% sclerosis was referred to as segmental and >80% was referred to as global.
Glomerular area. The glomerular area of mostly 100 randomly selected glomeruli at a magnification of ×100 was quantitated by counting squares covered by glomeruli area using a grid and the mean glomeruli area was calculated.
Renal tissues were fixed in 4% formaldehyde and embedded in paraffin. The paraffin-embedded tissues were then cut to form tissue slides of 4 μm. Immunohistochemistry of the paraffin-embedded tissue slides was analyzed using antibodies in the following concentration: monoclonal mouse anti rat CD-68 (ED-1, Serotec MCA341) 1:25. For quantitation of interstitial CD68+ staining, the number of positive cells was counted in 20 randomly selected non-overlapping fields per animal, and the mean value was presented. […]

[3] = Nx rats, VB-703 4 mg/kg, Telmisartan 10 mg/kg, 8 weeks, Mean ± S.E
[4] = VB-703 4 mg/kg, telmisartan 10 mg/kg, oral 7 weeks, vs Nx PBS 0.5% Eth

Row | Compound | formation of p-ERK induced by RANTES [1] | IL-12p40 levels, Pam3CSK4 (TLR2)-stimulated [2] | Glomerular sclerosis Global % (nephrectomized rats; [3]) [%] | Glomerular sclerosis Global & Segmental % (nephrectomized rats; [3]) [%] | Glomerular sclerosis Segmental % (nephrectomized rats; [3]) [%] | urinary albumin/creatinine/day ratio (nephrectomized rats; VB-703 4 mg/kg oral, at the termination of the study (8 weeks)) | glomerular and interstitial monocyte/macrophage infiltration (CD68 positive cells) (nephrectomized rats; VB-703 4 mg/kg, telmisartan 10 mg/kg, 8 weeks) | reduction of damaged glomeruli percent (nephrectomized rats; [4]) [%] | reduction of sclerotic glomeruli (nephrectomized rats; [4]) [%]
1 | CCCCCCCCCCCCCCCCOCC(COP(=O)([O-])OCC[N+](C)(C)C)OCCCCC(=O)O (stereo not drawn) [VB-201, 1-hexadecyl-2-(4′-carboxy)butyl-glycero-3-phosphocholine, reference compound] | inhibit | inhibit | – | – | – | – | – | – | –
2 | CCCCCCCCCCC(CCCCCCCC)COC[C@H](COP(=O)([O-])OCC[n+]1ccccc1)OCCCCC(=O)O (stereo partly drawn) [VB-703, (R)-1-(2′-octyl)dodecyl-2-(4′-carboxy)butyl-sn-glycero-3-phosphoric acid pyridiniumethyl ester] | – | – | 1.9 ± 1.55 | 24.7 ± 3.77 | 22.9 ± 2.83 | significantly improved | did not produce a significant effect | 38 | 49
